The record followed here is patent US8288442B2, “Use of derivatives of valproic acid amides and 2-valproenic acid amides for the treatment or prevention of pain and/or headache disorders” (Yissum Research Development Company of The Hebrew …, priority 2000, dated 2012).

In experiment [1] the test system is rat constriction injury model. The experiment can be described thus: rat chronic constriction injury model of neuropathic pain (cold allodynia). It is filed as in vivo. Conditions: read-out: ED50 for reversal of cold allodynia. How it is done:
The anti-pain effects of Compounds 1 and 2 are evaluated in a model for traumatic nerve injury. The specific model is the rat constriction injury model, a commonly accepted model for the evaluation of the potential of a compound to treat chronic neuropathic pain. The end point is whether a compound can reverse cold allodynia in rats following a neuropathic injury. MC may be used as the control.

Experiment [2] concerns plasma protein extravasation. Description: migraine model of Moskowitz (plasma protein extravasation into the dura mater). The class given is in vivo. As to conditions: control = 100. The text has this: Evaluation of the anti-headache effects of Compounds 1 and 2 are followed in the migraine model of Moskowitz (Suzzi, M. C. and Moskowitz, M. A.). In this model, neurogenic inflammation results in the leakage of plasma proteins into the dura matter (plasma protein extravasation), which can be quantified by measuring the leakage of radioactive albumin (Suzzi, M. C. and Moskowitz, M. A.).

A further experiment relates to Chung model. Description: Chung model of neuropathic pain (L5/L6 spinal nerve ligation, tactile allodynia, von Frey filaments). It is filed as in vivo, rat. As to conditions: 300 mg/kg per os, male Sabra rats. From the text:
The potential of Compound 1 to serve as an anti-pain agent was studied in the Chung model (Kim, S. H. and Chung, J. M.). This model is known as a reliable model, predictive for human pain. (Kim, S. H. and Chung, J. M.). In this model, spinal nerves L5 and L6 of the rat are tightly ligated and cut in order to induce neuropathic pain. Male Sabra rats weighing 250-275 g were used throughout the study. Under xylazine-ketamine anesthesia, both the L5 and L6 spinal nerves of one side of the rat were tightly ligated and cut. Pain behavior was measured following operation in all groups using withdrawal latencies of the hind paw to mechanical stimulation with von Frey filaments (tactile allodynia). The mechanical sensitivity of the foot was quantified by the occurrence of foot withdrawal in response to normally innocuous mechanical stimuli. Eight different von Frey filaments ranging from 0.6 to 26 g were used.
The efficacy (antiallodynic effect) of the compound was evaluated (300 mg/kg, per os (oral)) in eight rats at days 7 and 14 postoperation in a double-blind randomized crossover manner. The testing included estimation of time of peak effect following drug administration and measurement of the ability of the compound to decrease tactile allodynia.

As to `CC/C=C(\CCC)C(=O)NCC(N)=O` [Compound 2, N-(2-n-propylpent-2-enoyl)glycinamide], the ED50 in experiment [1] is less than 500 mg/kg. Besides, the “Percent Extravasation Compared to Control” value in experiment [2] was less than 100.

In the case of `CCCC(CCC)C(=O)NCC(N)=O` [Compound 1, N-(2-n-propylpentanoyl)glycinamide], the ED50 in experiment [1] is less than 500 mg/kg. Besides, the “Time of peak effect” value in the experiment with Chung model (antiallodynic effect) was found to be 60 min. For the same molecule, in the experiment on Chung model (days 7 and 14 postoperation, significant at 60 min (p=0.0207) and 120 min (p=0.0102)), the “Effect on tactile allodynia in comparison to vehicle” value was “reversed tactile allodynia”. Also, in experiment [2], the “Percent Extravasation Compared to Control” value is on record as less than 100.
